Data on 26 molecules can be found in patent US10988477B2 (Merck Patent GmbH, priority 2018, dated 2021).

The target of the assay is GCN2 kinase (Homo sapiens, UniProt Q9P2K8). Kind of assay: GCN2 enzyme inhibition assay (Transcreener ADP2 fluorescence polarization). In kind it is biochemical. The following applies: compounds of Formula II; 280 μM ATP, 4 nM GCN2 kinase. The method, then:
Compounds were screened for their ability to inhibit GCN2 kinase activity using a Transcreener® ADP^2 fluorescence polarization assay that detects ADP levels (BellBrook Labs, WI). Assays were carried out in a buffer consisting of 25 mM Tris-HCl (pH 7.5), 50 mM NaCl, 10 mM MgCl2 and 1 mM DTT. Final substrate concentrations were 280 μM ATP and 200 μM peptidic substrate ([…]-OH [(RS)7], Bachem, Switzerland). Assays were carried out at 25° C. in the presence of a (typical) final concentration of 4 nM GCN2 kinase. An assay buffer containing GCN2 kinase and (RS)7 was prepared. 4.7 μL of this stock solution was placed per well of a black, low volume, 384-well microtitre plate (e.g. catalogue number 3676, Corning Inc., NY). To this was added […] of DMSO containing serial dilutions of the test compound (typical final concentrations of test compound were 0 to 8 μM). The plate was incubated for 10 minutes at 25° C. prior to the addition of 4.7 μL of ATP stock buffer to initiate the enzyme reaction. The reaction was allowed to proceed for 1 hour at 25° C., prior to the addition of 10 μL detection buffer (consisting of appropriate concentrations of ADP^2 antibody and ADP Alexa633 tracer in 1× stop and detect buffer as supplied by BellBrook Labs). […] Percentage inhibition of enzyme activity was then calculated at each compound dose. IC50 and Ki(app) (using known assay and kinetic parameters) values were calculated from percentage inhibition data using a non-linear, tight-binding algorithm. All data analysis was undertaken using the Screener® software package (Genedata, Switzerland).

Sequence of GCN2 kinase (Q9P2K8 whole entry): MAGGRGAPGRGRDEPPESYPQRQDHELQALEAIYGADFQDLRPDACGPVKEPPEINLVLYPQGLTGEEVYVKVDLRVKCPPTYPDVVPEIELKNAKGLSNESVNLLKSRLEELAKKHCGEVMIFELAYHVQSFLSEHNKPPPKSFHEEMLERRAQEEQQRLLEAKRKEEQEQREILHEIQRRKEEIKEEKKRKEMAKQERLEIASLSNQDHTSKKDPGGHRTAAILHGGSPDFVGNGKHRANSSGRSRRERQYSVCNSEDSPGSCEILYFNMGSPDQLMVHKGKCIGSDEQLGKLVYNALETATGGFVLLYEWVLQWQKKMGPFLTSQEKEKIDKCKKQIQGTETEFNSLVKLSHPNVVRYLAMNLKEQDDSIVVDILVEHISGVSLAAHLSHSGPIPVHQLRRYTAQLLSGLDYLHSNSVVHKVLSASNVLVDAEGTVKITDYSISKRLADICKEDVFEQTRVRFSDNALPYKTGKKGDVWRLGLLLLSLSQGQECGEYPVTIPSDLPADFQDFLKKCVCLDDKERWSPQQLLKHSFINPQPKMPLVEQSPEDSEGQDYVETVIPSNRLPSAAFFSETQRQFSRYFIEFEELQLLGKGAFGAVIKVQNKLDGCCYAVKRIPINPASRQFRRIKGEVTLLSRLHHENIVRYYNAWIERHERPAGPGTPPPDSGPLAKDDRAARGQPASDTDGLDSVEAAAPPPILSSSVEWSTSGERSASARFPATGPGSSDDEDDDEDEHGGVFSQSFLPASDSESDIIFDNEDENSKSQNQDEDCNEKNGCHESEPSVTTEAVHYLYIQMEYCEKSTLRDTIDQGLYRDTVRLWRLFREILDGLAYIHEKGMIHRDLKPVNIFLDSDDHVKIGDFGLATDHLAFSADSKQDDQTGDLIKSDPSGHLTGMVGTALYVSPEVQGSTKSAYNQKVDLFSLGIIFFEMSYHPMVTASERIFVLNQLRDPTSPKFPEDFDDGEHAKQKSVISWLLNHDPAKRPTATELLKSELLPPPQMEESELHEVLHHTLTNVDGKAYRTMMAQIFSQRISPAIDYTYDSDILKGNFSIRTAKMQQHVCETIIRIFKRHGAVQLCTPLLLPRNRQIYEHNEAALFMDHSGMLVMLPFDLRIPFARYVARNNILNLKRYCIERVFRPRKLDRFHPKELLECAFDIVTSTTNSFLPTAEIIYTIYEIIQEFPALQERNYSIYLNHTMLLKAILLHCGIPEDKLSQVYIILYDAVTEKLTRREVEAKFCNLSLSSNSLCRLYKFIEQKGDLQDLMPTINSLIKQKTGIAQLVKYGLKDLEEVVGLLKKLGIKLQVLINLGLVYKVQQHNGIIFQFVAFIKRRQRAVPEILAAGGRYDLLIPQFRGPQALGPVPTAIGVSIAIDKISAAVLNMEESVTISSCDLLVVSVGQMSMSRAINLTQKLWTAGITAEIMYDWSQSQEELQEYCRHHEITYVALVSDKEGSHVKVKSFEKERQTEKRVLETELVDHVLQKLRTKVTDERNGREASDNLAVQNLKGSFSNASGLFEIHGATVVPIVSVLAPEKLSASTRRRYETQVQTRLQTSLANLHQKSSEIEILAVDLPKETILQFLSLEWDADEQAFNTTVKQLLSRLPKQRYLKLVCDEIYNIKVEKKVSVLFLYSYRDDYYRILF

As usually defined, the Ki is a measure of affinity in units of concentration, obtained from inhibition or displacement. Low values mean higher affinity, high ones lower affinity. `C[C@@H]1C[C@H](CO)[C@H](C)N(c2cc(-c3cnc4ccc(C(F)F)nn34)ncn2)C1` (single isomer, unassigned) [II-585] returned a Ki of under 10 nM. The figure for `CC1CC(CO)C(C)N(c2cc(-c3cnc4ccc(C(F)F)nn34)ncn2)C1` (single isomer, unassigned) [II-586, (1-(6-(6-(Difluoromethyl)imidazo[1,2-b]pyridazin-3-yl)pyrimidin-4-yl)-2,5-dimethylpiperidin-3-yl)methanol] is 10 to 1000 nM; for `CC1C(N=S(C)(C)=O)CCCN1c1cc(-c2cnc3ccc(C(F)F)nn23)ncn1` (single isomer, unassigned) [II-594, ((1-(6-(6-(Difluoromethyl)imidazo[1,2-b]pyridazin-3-yl)pyrimidin-4-yl)-2-methylpiperidin-3-yl)imino)dimethyl-λ^6-sulfanone] it is 10 to 1000 nM. Take `CC(C)(O)C1CCCN(c2cc(-c3cnc4ccc(C(F)F)nn34)ncn2)C1` (single isomer, unassigned) [II-613, 2-(1-(6-(6-(Difluoromethyl)imidazo[1,2-b]pyridazin-3-yl)pyrimidin-4-yl)piperidin-3-yl)propan-2-ol]: the Ki was in the range of 10 to 1000 nM. On to `CC(C)(O)C1CCCN(c2cc(-c3cnc4ccc(C(F)F)nn34)ncn2)C1` (single isomer, unassigned) [II-614, 2-(1-(6-(6-(Difluoromethyl)imidazo[1,2-b]pyridazin-3-yl)pyrimidin-4-yl)piperidin-3-yl)propan-2-ol], for which the Ki lay within 10 to 1000 nM. On to `CC1CC(CS(C)(=O)=O)C(C)N(c2cc(-c3cnc4ccc(C(F)F)nn34)ncn2)C1` (single isomer, unassigned) [II-625, 6-(Difluoromethyl)-3-[6-[2,5-dimethyl-3-(methylsulfonylmethyl)-1-piperidyl]pyrimidin-4-yl]imidazo[1,2-b]pyridazine], for which the Ki was in the range of 10 to 1000 nM. With `CC1CC(CS(C)(=O)=O)C(C)N(c2cc(-c3cnc4ccc(C(F)F)nn34)ncn2)C1` (single isomer, unassigned) [II-626, 6-(difluoromethyl)-3-[6-[2,5-dimethyl-3-(methylsulfonylmethyl)-1-piperidyl]pyrimidin-4-yl]imidazo[1,2-b]pyridazine] the figure was under 10 nM.

Molecule `CC1CC(N=S(C)(C)=O)C(C)N(c2cc(-c3cnc4ccc(C(F)F)nn34)ncn2)C1` (single isomer, unassigned) [II-630, ((1-(6-(6-(Difluoromethyl)imidazo[1,2-b]pyridazin-3-yl)pyrimidin-4-yl)-2,5-dimethylpiperidin-3-yl)imino)dimethyl-λ^6-sulfanone] returned a Ki of 10 to 1000 nM. With `CC1CCN(c2cc(-c3cnc4ccc(C(F)F)nn34)ncn2)CC1N=S(C)(C)=O` (single isomer, unassigned) [II-632, ((1-(6-(6-(Difluoromethyl)imidazo[1,2-b]pyridazin-3-yl)pyrimidin-4-yl)-4-methylpiperidin-3-yl)imino)dimethyl-λ^6-sulfanone] the figure was 10 to 1000 nM; with `CC1CCN(c2cc(-c3cnc4ccc(C(F)F)nn34)ncn2)CC1N=S(C)(C)=O` (single isomer, unassigned) [II-633, ((1-(6-(6-(Difluoromethyl)imidazo[1,2-b]pyridazin-3-yl)pyrimidin-4-yl)-4-methylpiperidin-3-yl)imino)dimethyl-λ^6-sulfanone], 10 to 1000 nM; with `CS(=N)(=O)CC1CCCN(c2cc(-c3cnc4ccc(C(F)F)nn34)ncn2)C1` (single isomer, unassigned) [II-636, ((1-(6-(6-(Difluoromethyl)imidazo[1,2-b]pyridazin-3-yl)pyrimidin-4-yl)piperidin-3-yl)methyl)(imino)(methyl)-λ^6-sulfanone], 10 to 1000 nM. `CS(=N)(=O)CC1CCCN(c2cc(-c3cnc4ccc(C(F)F)nn34)ncn2)C1` (single isomer, unassigned) [II-637, ((1-(6-(6-(Difluoromethyl)imidazo[1,2-b]pyridazin-3-yl)pyrimidin-4-yl)piperidin-3-yl)methyl)(imino)(methyl)-λ^6-sulfanone] returned a Ki of 10 to 1000 nM. On to `CS(=N)(=O)CC1CCCN(c2cc(-c3cnc4ccc(C(F)F)nn34)ncn2)C1` (single isomer, unassigned) [II-638, ((1-(6-(6-(Difluoromethyl)imidazo[1,2-b]pyridazin-3-yl)pyrimidin-4-yl)piperidin-3-yl)methyl)(imino)(methyl)-λ^6-sulfanone], for which the Ki was 10 to 1000 nM. With `CS(=N)(=O)CC1CCCN(c2cc(-c3cnc4ccc(C(F)F)nn34)ncn2)C1` (single isomer, unassigned) [II-639, ((1-(6-(6-(Difluoromethyl)imidazo[1,2-b]pyridazin-3-yl)pyrimidin-4-yl)piperidin-3-yl)methyl)(imino)(methyl)-λ^6-sulfanone] the figure was 10 to 1000 nM.

As for `CCS(C)(=O)=NC1CC(C)CN(c2cc(-c3cnc4ccc(C(F)F)nn34)ncn2)C1` (single isomer, unassigned) [II-640, ((1-(6-(6-(Difluoromethyl)imidazo[1,2-b]pyridazin-3-yl)pyrimidin-4-yl)-5-methylpiperidin-3-yl)imino)(ethyl)(methyl)-λ^6-sulfanone], the Ki lay within 10 to 1000 nM. The figure for `CCS(C)(=O)=NC1CC(C)CN(c2cc(-c3cnc4ccc(C(F)F)nn34)ncn2)C1` (single isomer, unassigned) [II-641, ((1-(6-(6-(Difluoromethyl)imidazo[1,2-b]pyridazin-3-yl)pyrimidin-4-yl)-5-methylpiperidin-3-yl)imino)(ethyl)(methyl)-λ^6-sulfanone] is 10 to 1000 nM; for `CCS(C)(=O)=NC1CC(C)CN(c2cc(-c3cnc4ccc(C(F)F)nn34)ncn2)C1` (single isomer, unassigned) [II-642, ((1-(6-(6-(Difluoromethyl)imidazo[1,2-b]pyridazin-3-yl)pyrimidin-4-yl)-5-methylpiperidin-3-yl)imino)(ethyl)(methyl)-λ^6-sulfanone] it is under 10 nM. The figure for `CCS(C)(=O)=NC1CC(C)CN(c2cc(-c3cnc4ccc(C(F)F)nn34)ncn2)C1` (single isomer, unassigned) [II-643, ((1-(6-(6-(Difluoromethyl)imidazo[1,2-b]pyridazin-3-yl)pyrimidin-4-yl)-5-methylpiperidin-3-yl)imino)(ethyl)(methyl)-λ^6-sulfanone] is under 10 nM; for `CC1CC(N=S(C)(=O)C2CC2)CN(c2cc(-c3cnc4ccc(C(F)F)nn34)ncn2)C1` (single isomer, unassigned) [II-644, Cyclopropyl((1-(6-(6-(difluoromethyl)imidazo[1,2-b]pyridazin-3-yl)pyrimidin-4-yl)-5-methylpiperidin-3-yl)imino)(methyl)-λ^6-sulfanone] it is 10 to 1000 nM.

For `CC1CC(N=S(C)(=O)C2CC2)CN(c2cc(-c3cnc4ccc(C(F)F)nn34)ncn2)C1` (single isomer, unassigned) [II-645, Cyclopropyl((1-(6-(6-(difluoromethyl)imidazo[1,2-b]pyridazin-3-yl)pyrimidin-4-yl)-5-methylpiperidin-3-yl)imino)(methyl)-λ^6-sulfanone], the Ki is 10 to 1000 nM. Molecule `CC1CC(N=S(C)(=O)C2CC2)CN(c2cc(-c3cnc4ccc(C(F)F)nn34)ncn2)C1` (single isomer, unassigned) [II-646, Cyclopropyl((1-(6-(6-(difluoromethyl)imidazo[1,2-b]pyridazin-3-yl)pyrimidin-4-yl)-5-methylpiperidin-3-yl)imino)(methyl)-λ^6-sulfanone] returned a Ki of 10 to 1000 nM. The figure for `CC1CC(N=S(C)(=O)C2CC2)CN(c2cc(-c3cnc4ccc(C(F)F)nn34)ncn2)C1` (single isomer, unassigned) [II-647, Cyclopropyl((1-(6-(6-(difluoromethyl)imidazo[1,2-b]pyridazin-3-yl)pyrimidin-4-yl)-5-methylpiperidin-3-yl)imino)(methyl)-λ^6-sulfanone] is 10 to 1000 nM. The molecule `CCC1CC(N=S(C)(C)=O)CN(c2cc(-c3cnc4ccc(C(F)F)nn34)ncn2)C1` (single isomer, unassigned) [II-651, ((1-(6-(6-(Difluoromethyl)imidazo[1,2-b]pyridazin-3-yl)pyrimidin-4-yl)-5-ethylpiperidin-3-yl)imino)dimethyl-λ^6-sulfanone] came in with a Ki of 10 to 1000 nM.

In the case of `CC1CN(c2cc(-c3cnc4ccc(C(F)F)nn34)ncn2)C(C)C(c2cn[nH]c2)N1` (single isomer, unassigned) [II-653, 6-(Difluoromethyl)-3-(6-(2,5-dimethyl-3-(1H-pyrazol-4-yl)piperazin-1-yl)pyrimidin-4-yl)imidazo[1,2-b]pyridazine], the Ki fell in the range of 10 to 1000 nM. In turn, `CC1CC(C(N)=O)C(C)N(c2cc(-c3cnc4ccc(C(F)(F)F)nn34)ncn2)C1` (single isomer, unassigned) [II-718, 2,5-Dimethyl-1-[6-[6-(trifluoromethyl)imidazo[1,2-b]pyridazin-3-yl]pyrimidin-4-yl]piperidine-3-carboxamide] registered a Ki of 10 to 1000 nM. For `CC1CC(N=S(C)(C)=O)CN(c2cc(-c3cnc4ccc(C(F)F)nn34)c(F)cn2)C1` (single isomer, unassigned) [II-722, ((1-(4-(6-(Difluoromethyl)imidazo[1,2-b]pyridazin-3-yl)-5-fluoropyridin-2-yl)-5-methylpiperidin-3-yl)imino)dimethyl-λ^6-sulfanone], the Ki lay within 10 to 1000 nM.
